In patent US20230339981A1, “KRAS G12D MODULATING COMPOUNDS” (priority 2022, published 2023) one finds EC50 and IC50 data, which are given here for eleven compounds.

Assay [1] relates to GP2D (KRAS G12D) cells. Put plainly: 2D cell viability assay (CellTiter-Glo). The following applies: GP2d, 96 h, 4 days. Format: cell-based. The gist of the method: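 GP2D (KRAS G12D) cells, 1000/well in RPMI + 10% FBS, were plated onto compound (1:3 DMSO series) and grown 4 days at 37 °C, 5% CO2 in 2D. CellTiter-Glo luminescence was read; EC50 is the concentration giving 50% signal decrease, from sigmoidal fit.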
On the technique in general: In ATP-based viability assays light output follows the ATP content of the culture.

Assay [2] addresses GDP-loaded KRAS G12D (Homo sapiens (Human), UniProt P01116, G12D). Put plainly: KRAS G12D (GDP) biochemical assay (TR-FRET probe displacement). Format: binding. To be noted: 2 hours. The gist of the method:
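Compound pre-incubated 30 min with GDP-loaded KRAS G12D in 50 mM Hepes pH 7.4, 150 mM NaCl, 5 mM MgCl2, 0.005% Tween-20, then Eu-streptavidin and TR-FRET probe added. After 2 h at room temperature, TR-FRET ratio read; IC50 is 50% ratio decrease, sigmoidal fit.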
(In general: Time-resolved FRET reads energy transfer from a long-lived donor to a nearby acceptor.)

Sequence of GDP-loaded KRAS G12D (P01116-2 other isoform, or with tags, fused parts or gaps G12D): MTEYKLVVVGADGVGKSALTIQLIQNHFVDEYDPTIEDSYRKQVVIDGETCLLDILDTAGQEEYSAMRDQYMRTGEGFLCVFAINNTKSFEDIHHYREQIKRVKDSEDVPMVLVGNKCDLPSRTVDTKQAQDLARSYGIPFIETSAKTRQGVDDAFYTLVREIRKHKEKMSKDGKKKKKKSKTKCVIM

Consider `C#Cc1c(F)ccc2cccc(-c3nc4c5c(nc(OC[C@@]67CCCN6[C@H](CF)CC7)nc5c3F)N3C[C@H]5CC[C@H](N5)[C@H]3CC[C@H]4C)c12` [Example 195, (4R,6aR,7S,10R)-2-(8-ethynyl-7-fluoronaphthalen-1-yl)-1-fluoro-13-(((3S,7aS)-3-(fluoromethyl)tetrahydro-1H-pyrrolizin-7a(5H)-yl)methoxy)-4-methyl-5,6,6a,7,8,9,10,11-octahydro-4H-3,11a,12,14,15-pentaaza-7,10-methanocyclohepta[4,5]cycloocta[1,2,3-de]naphthalene], for which, in assay [1], the EC50 worked out at 1.5 nM. In assay [2], this compound returned an IC50 of 0.07 nM.
The compound `C#Cc1c(F)ccc2cc(N)cc(-c3nc4c5c(nc(OC[C@@]67CCCN6C[C@H](F)C7)nc5c3F)N3C[C@H]5CC[C@H](N5)[C@@H]3[C@@H](C)C4)c12` [Example 196, 5-ethynyl-6-fluoro-4-((5S,5aS,6S,9R)-1-fluoro-12-(((2R,7aS)-2-fluorotetrahydro-1H-pyrrolizin-7a(5H)-yl)methoxy)-5-methyl-4,5,5a,6,7,8,9,10-octahydro-3,10a,11,13,14-pentaaza-6,9-methanonaphtho[1,8-ab]heptalen-2-yl)naphthalen-2-amine] displayed an EC50 in assay [1] of 1.8 nM. Further, the IC50 in assay [2] was 0.1 nM.
In turn, `C#Cc1c(F)ccc2cccc(-c3nc4c5c(nc(OC[C@@]67CCCN6[C@H](COc6cnc(C(F)(F)F)cn6)CC7)nc5c3F)N3C[C@H]5CC[C@H](N5)[C@H]3CCC4)c12` [Example 197, (6aR,7S,10R)-2-(8-ethynyl-7-fluoronaphthalen-1-yl)-1-fluoro-13-(((3S,7aS)-3-(((5-(trifluoromethyl)pyrazin-2-yl)oxy)methyl)tetrahydro-1H-pyrrolizin-7a(5H)-yl)methoxy)-5,6,6a,7,8,9,10,11-octahydro-4H-3,11a,12,14,15-pentaaza-7,10-methanocyclohepta[4,5]cycloocta[1,2,3-de]naphthalene] registered an EC50 in assay [1] of 2.4 nM. In assay [2], this compound yielded an IC50 of 0.04 nM.
For `C#Cc1c(F)ccc2cccc(-c3nc4c5c(nc(OC[C@@]67CCCN6[C@H](COc6cc(C(F)(F)F)cnn6)CC7)nc5c3F)N3C[C@H]5CC[C@H](N5)[C@H]3CCC4)c12` [Example 198, (6aR,7S,10R)-2-(8-ethynyl-7-fluoronaphthalen-1-yl)-1-fluoro-13-(((3S,7aS)-3-(((5-(trifluoromethyl)pyridazin-3-yl)oxy)methyl)tetrahydro-1H-pyrrolizin-7a(5H)-yl)methoxy)-5,6,6a,7,8,9,10,11-octahydro-4H-3,11a,12,14,15-pentaaza-7,10-methanocyclohepta[4,5]cycloocta[1,2,3-de]naphthalene] the same measures were 2.4 nM and 0.02 nM.
The matching figures for `C#Cc1c(F)ccc2cccc(-c3nc4c5c(nc(OC[C@@]67CCCN6[C@H](COc6cnnc(C(F)(F)F)c6)CC7)nc5c3F)N3C[C@H]5CC[C@H](N5)[C@H]3CCC4)c12` [Example 199, (6aR,7S,10R)-2-(8-ethynyl-7-fluoronaphthalen-1-yl)-1-fluoro-13-(((3S,7aS)-3-(((6-(trifluoromethyl)pyridazin-4-yl)oxy)methyl)tetrahydro-1H-pyrrolizin-7a(5H)-yl)methoxy)-5,6,6a,7,8,9,10,11-octahydro-4H-3,11a,12,14,15-pentaaza-7,10-methanocyclohepta[4,5]cycloocta[1,2,3-de]naphthalene]: 3.2 nM and 0.07 nM.
For `C#Cc1c(F)ccc2cccc(-c3nc4c5c(nc(OC[C@@]67CCCN6[C@H](COc6cnc(C(F)F)cn6)CC7)nc5c3F)N3C[C@H]5CC[C@H](N5)[C@H]3CCC4)c12` [Example 200, (6aR,7S,10R)-13-(((3S,7aS)-3-(((5-(difluoromethyl)pyrazin-2-yl)oxy)methyl)tetrahydro-1H-pyrrolizin-7a(5H)-yl)methoxy)-2-(8-ethynyl-7-fluoronaphthalen-1-yl)-1-fluoro-5,6,6a,7,8,9,10,11-octahydro-4H-3,11a,12,14,15-pentaaza-7,10-methanocyclohepta[4,5]cycloocta[1,2,3-de]naphthalene] the same measures were 2.9 nM and 0.05 nM.
The compound `C#Cc1c(F)ccc2cccc(-c3nc4c5c(nc(OC[C@@]67CCCN6[C@H](CSc6cc(C(F)(F)F)ncn6)CC7)nc5c3F)N3C[C@H]5CC[C@H](N5)[C@H]3CCC4)c12` [Example 201, (6aR,7S,10R)-2-(8-ethynyl-7-fluoronaphthalen-1-yl)-1-fluoro-13-(((3S,7aS)-3-(((6-(trifluoromethyl)pyrimidin-4-yl)thio)methyl)tetrahydro-1H-pyrrolizin-7a(5H)-yl)methoxy)-5,6,6a,7,8,9,10,11-octahydro-4H-3,11a,12,14,15-pentaaza-7,10-methanocyclohepta[4,5]cycloocta[1,2,3-de]naphthalene] returned an EC50 in assay [1] of 10 nM. For the same compound, the IC50 in assay [2] worked out at 0.02 nM.
For the compound `C#Cc1c(F)ccc2cccc(-c3c(Cl)c4c5c(nc(OC[C@@]67CCCN6C[C@H](F)C7)nc5c3F)N3C[C@H]5CC[C@H](N5)[C@H]3CC4)c12` [Example 202, (1S,4R,14aR)-12-chloro-11-(8-ethynyl-7-fluoronaphthalen-1-yl)-10-fluoro-8-(((2R,7aS)-2-fluorotetrahydro-1H-pyrrolizin-7a(5H)-yl)methoxy)-1,2,3,4,5,13,14,14a-octahydro-1,4-epiminoazepino[1′,2′:1,7]azepino[2,3,4-de]quinazoline], the response in assay [1] was half-maximal at 64 nM (EC50). In assay [2], this compound had a 50% inhibitory concentration (IC50) of 0.37 nM.
`C#Cc1c(F)ccc2cccc(-c3nc4c5c(nc(OC[C@@]67CCCN6[C@H](COc6cc(C(F)(F)F)ncn6)CC7)nc5c3F)N3C[C@H]5CC[C@H](N5)[C@H]3CC[C@H]4C)c12` [Example 203, (4R,6aR,7S,10R)-2-(8-ethynyl-7-fluoronaphthalen-1-yl)-1-fluoro-4-methyl-13-(((3S,7aS)-3-(((6-(trifluoromethyl)pyrimidin-4-yl)oxy)methyl)tetrahydro-1H-pyrrolizin-7a(5H)-yl)methoxy)-5,6,6a,7,8,9,10,11-octahydro-4H-3,11a,12,14,15-pentaaza-7,10-methanocyclohepta[4,5]cycloocta[1,2,3-de]naphthalene] showed an EC50 in assay [1] of 1.2 nM. In assay [2], this compound had an IC50 of 0.12 nM.
For `C#Cc1c(F)ccc2cc(O)cc(-c3c(Cl)c4c5c(nc(OC[C@@]67CCCN6C[C@H](F)C7)nc5c3F)N3C[C@H]5CC[C@H](N5)[C@H]3CC4)c12` [Example 204, 4-((1S,4R,14aR)-12-chloro-10-fluoro-8-(((2R,7aS)-2-fluorotetrahydro-1H-pyrrolizin-7a(5H)-yl)methoxy)-1,2,3,4,5,13,14,14a-octahydro-1,4-epiminoazepino[1′,2′:1,7]azepino[2,3,4-de]quinazolin-11-yl)-5-ethynyl-6-fluoronaphthalen-2-ol] the same measures were 1.3 nM and 0.1 nM.
In assay [1], `C#Cc1c(F)ccc2cccc(-c3nc4c5c(nc(OC[C@@]67CCCN6[C@H](COc6cc(C(F)F)ncn6)CC7)nc5c3F)N3C[C@H]5CC[C@H](N5)[C@H]3CCC4)c12` [Example 205, (6aR,7S,10R)-13-(((3S,7aS)-3-(((6-(difluoromethyl)pyrimidin-4-yl)oxy)methyl)tetrahydro-1H-pyrrolizin-7a(5H)-yl)methoxy)-2-(8-ethynyl-7-fluoronaphthalen-1-yl)-1-fluoro-5,6,6a,7,8,9,10,11-octahydro-4H-3,11a,12,14,15-pentaaza-7,10-methanocyclohepta[4,5]cycloocta[1,2,3-de]naphthalene] came in with an EC50 of 2.2 nM. In assay [2], this compound showed an IC50 of 0.06 nM.

The EC50 is the concentration needed to bring the measured effect to its halfway point. What is called IC50 is the concentration needed to halve the response being measured.
